# Results from paper PMC6234764, “First Insights Into Within Host Translocation of the Bacillus cereus Toxin Cereulide Using a Porcine Model” (Frontiers in Microbiology, 2018).
# Legend:
# [1] = tested on: Large White piglets; assay: Clinical signs after oral administration of cereulide; type: in vivo, pig
# Protocol: In each experiment five Large White piglets, weighing 10–15 kg, were used. All piglets were derived from one single farm in Austria. The animals were placed in metabolic cages 3 days before start of the experiment for acclimatization. Water ad libitum and feed (Ferkelkorn, Garant Tiernahrung, Pöchlarn, Austria) were available before and during the whole experiment.
# (§1) A total of four experiments, each including four treated animals and one control pig, was performed to investigate the action of cereulide on piglets after oral intake of cereulide. Pigs were either challenged orally with a single dose (acute trials) or with daily over a period of 7 days (chronic trial) (see Table 1). One hour before cereulide toxin administration blood samples were taken by puncturing the anterior Vena cava and piglets were weighed for calculation of the cereulide concentration (t = 0 h). In the intoxication experiment with 150 μg kg^-1 blood samples were taken 68 h before the experiment to reduce the distress for the animals at the start day of the experiments. Blood-chemical, immunological, and histological analyses of selected organs as well as quantification of cereulide in organs, tissues, urine and feces were carried out as detailed below.
# (§2) On body weight calculated amounts of cereulide, dissolved in ethanol, were mixed with milk (UHT milk; 3.5% fat), and fed to four piglets. Control piglets were fed with milk supplemented with similar ethanol concentrations as the experimental piglets. The experiment started after the uptake of the whole milk cereulide mixture. The milk was checked for bacterial contamination prior to the experiment.
# (§3) After oral administration of cereulide, piglets were monitored for unusual behavior and examined physically with special respect on rectal body temperature as well as pulse and respiration rate, every 2–3 h. Blood samples were taken from the Vena cava cranialis. Urine and feces were collected during the whole experiment and stored at -80°C. After the experiment pigs were anaesthetized by intramuscular injection of a bolus of ketamine (10 mg kg^-1) and azaperone (1.3 mg kg^-1). When sedation was deep enough cerebrospinal fluid (liquor) was taken by lumbar puncture. Finally, pigs were euthanized by intracardial injection of T61®. Animals were then necropsied and parts of the following organs, tissues or body fluids were taken for SIDA-MS analysis: liver, lung, heart, kidney, brain, spleen, small and large intestine, lymph nodes, gastric as well as intestinal contents, skeletal muscle, and abdominal and subcutaneous fat. Samples of liver, lung, heart, kidney, brain, spleen, small, and large intestine were collected for histological analysis.
# [2] = Excretion of cereulide in feces and urine, SIDA-MS; type: in vivo, pig
# Protocol: as §1, §2, §3
# Collected blood samples, urine, feces, tissue and organs were freeze dried and stored at -80°C until analysis. Before extraction, liquid nitrogen was added to frozen samples and they were crushed to a powder using a mortar. Ten microgram ^13C6-cereulide (for organs and feces) or 5 μg ^13C6-cereulide (for urine and blood) was added and samples were incubated on a rocking table for 2 h. Samples were solved in ethanol (volume depending on weight 10–40 mL), incubated 14 h, and the supernatants were collected by centrifugation (RT, 8500 g, 10 min). For pre-purification the ethanolic extract was 1:5 diluted with water and applied onto the top of a methanol activated C18-SPE cartridge (6 mL; 1 g; Strata C18-E; Phenomenex, Aschaffenburg, Germany). The cartridge was washed with 6 mL water followed by methanol/water (4 mL; 70/30, v/v) and target compounds were eluted with ethanol (2.5 mL). Finally, samples were membrane filtrated (0.2 μm; PTFE membrane; Phenomenex, Aschaffenburg, Germany) and analyzed by means of LC-MS/MS as described previously ([Bauer et al., 2010]). In brief, LC-MS/MS analysis was performed using an Agilent 1200 HPLC-system connected to the API 4000QTrap LC-MS/MS (Applied Biosystems, Darmstadt, Germany) running in the positive electrospray ionization (ESI^+, +5500 V) mode. Zero grade air served as nebulizer gas (45 psi) and turbo gas (425°C) for solvent drying (55 psi), nitrogen was used as curtain (20 psi) and collision gas (8.7 × 10^-7 psi), respectively. Both quadrapoles were set at unit resolution. […]
# [3] = tested on: piglets; assay: Blood analysis: hematology and clinical chemistry; type: in vivo, pig
# Protocol: as §1, §3
# One milliliter EDTA-stabilized blood and 3 mL heparin-stabilized blood (worked up to serum) were screened for erythrocyte number, hemoglobin, hematocrit, mean cellular volume (MCV), mean cellular hemoglobin (MCH), mean cellular hemoglobin concentration (MCHC), leukocyte number, mean peroxidase index (MPXI), numbers of monocytes, lymphocytes, eosinophils, basophils, lymphoblasts, juvenile and segmented neutrophils, as well as glucose, urea, creatinine, total protein, aspartate amino transferase (AST), alanine amino transferase (ALT), […] (GLDH), gamma glutamyl transferase (GGT), bile acid, lipase, creatine kinase, sodium, potassium, chloride, calcium, and phosphorus at the central diagnostic unit of the University of Veterinary Medicine Vienna.
# [4] = ref Andersson et al., 2007; cited from earlier work
# Protocol: Due to the lipophilic character of cereulide (log Kow 5.96) ([Andersson et al., 2007]), it could be assumed that part of the ingested cereulide adheres to digested food and is rapidly excreted via feces. Indeed, as shown in our porcine model, within the first 48 h 10–15% of the cereulide toxin orally administered is shed with feces. Cereulide was already detected in feces a few hours after toxin administration, which allows an early, non-invasive identification of cereulide intoxications. Even in case of the low dose of cereulide used in the chronic trial (10 μg cereulide kg^-1) cereulide coul ...
# [5] = oral doses 10 to 150 μg kg^-1, summary in discussion
# [6] = daily oral dose 10 μg kg^-1 over 7 days
smiles,measurement,setting,value
CC(C)C[C@H]1OC(=O)[C@H](C(C)C)NC(=O)[C@H](C(C)C)OC(=O)[C@@H](C)NC(=O)[C@@H](CC(C)C)OC(=O)[C@H](C(C)C)NC(=O)[C@H](C(C)C)OC(=O)[C@@H](C)NC(=O)[C@@H](CC(C)C)OC(=O)[C@H](C(C)C)NC(=O)[C@H](C(C)C)OC(=O)[C@@H](C)NC1=O [cereulide],"Pulse and respiration rates, inner body temperature","[1]; all animals, except during periods of seizures and convulsions",normal pulse and respiration rates as well as inner body temperature
same,Onset of seizures,"[1]; daily oral dose 10 μg kg^-1 for 7 days, all four pigs to varying extents",2 to 4 h
same,Onset of transient depressiveness,"[1]; daily oral dose 10 μg kg^-1 for 7 days, all piglets",2 to 6 h
same,Emesis in the pigs,[1]; oral doses 10 to 150 μg kg^-1,only rarely observed
same,Onset of observed symptoms in the piglets,[1]; [5],1.5 to 3 h
same,Time after which symptoms ceased,[1]; [5],7 to 9 h
same,Duration of transient depressive behavior,"[1]; single oral dose 10 μg kg^-1, all treated piglets",4.5 to 6 h
same,Time of vomiting after toxin intake,"[1]; single oral dose 10 μg kg^-1, one animal",11 h
same,Time after which all symptoms disappeared,[1]; single oral dose 30 μg kg^-1,7 to 9 h
same,Onset of shivering,"[1]; single oral dose 30 μg kg^-1, 2/4 piglets, seizures an additional hour later",1 h
same,Onset of seizures after cereulide intake,"[1]; single oral dose 30 μg kg^-1, remaining two piglets",4 to 6 h
same,Onset of lethargic behavior,"[1]; single oral dose 150 μg kg^-1, all treated piglets",1.5 to 2 h
same,Time to gradual recovery,"[1]; single oral dose 150 μg kg^-1, three of the four piglets",6 to 7 h
same,Cereulide concentration in feces,"[2]; daily oral dose 10 μg kg^-1, until end of trial on day 7",0.02 to 0.29 μg cereulide g^-1 feces
same,Detectability of cereulide in urine,[2]; [6],no cereulide was detectable
same,Time until cereulide became detectable in fecal samples,[2]; [6],2 to 3 days
same,Amount of cereulide excreted with the feces,"[2]; one pig (13 kg), 30 μg kg^-1 (total intake 390 μg), after 12 h",20.90 µg
same,Amount of cereulide excreted with the feces,"[2]; one pig (13 kg), 30 μg kg^-1 (total intake 390 μg), after 24 h",26.80 µg
same,Amount of cereulide excreted with the feces,"[2]; one pig (13 kg), 30 μg kg^-1 (total intake 390 μg), after 48 h",1.38 µg
same,Total amount of cereulide excreted with the feces,"[2]; one pig (13 kg), 30 μg kg^-1 (total intake 390 μg), in 33.6 g feces over 48 h",49.08 µg
same,"Cereulide concentration in fecal samples, maximum","[2]; oral challenge, SIDA-MS",up to 5 μg cereulide g^-1 feces
same,"Overall cereulide excretion in feces, % of total amount","[2]; single oral dose 30 μg kg^-1, within first 48 h",up to 13%
same,Time of first detection in fecal samples post-toxin exposure,[2]; single oral dose 150 μg kg^-1,3 to 4 h
same,"Cereulide concentration in urine, maximum","[2]; single oral dose 150 μg kg^-1, SIDA-MS",up to 2 ng cereulide mL^-1 urine
same,"Overall cereulide excretion in feces, % of total quantity administered","[2]; single oral dose 150 μg kg^-1, within first 48 h",up to 15%
same,Time of highest toxin amounts excreted with feces,"[2]; single oral dose 150 μg kg^-1, exception one pig that did not defecate over 20 h",16 to 24 h
same,Detectability of cereulide in urine,"[2]; single oral doses 10 μg kg^-1/30 μg kg^-1, SIDA-MS",not from animals challenged with lower cereulide doses
same,Cereulide orally administered that is shed with feces,"[2]; within the first 48 h, acute trials",10–15%
same,Influence on blood cell composition and biochemical markers in blood,"[3]; acute trials, samples before and after 8 (only 150 μg kg^-1), 24 and 48 h",no significant influence
same,Creatine kinase (CK),"[3]; daily oral dose 10 μg kg^-1, after 3 days, all treated pigs",increase
same,AST levels,"[3]; daily oral dose 10 μg kg^-1, two out of four treated pigs after 3 and 7 days",elevated
same,Creatine kinase (CK) levels,[3]; single oral dose 30 μg kg^-1,increased
same,Creatine kinase (CK) levels,[3]; single oral dose 150 μg kg^-1,increased
same,Leukocytes,"[3]; single oral dose 150 μg kg^-1, all animals",increased levels
same,Aspartate aminotransferase (AST),"[3]; single oral dose 150 μg kg^-1, three out of four pigs",transient increase
same,log Kow,[4],5.96
